Test results: patent publication EP1293213A1, “PREVENTIVES/REMEDIES FOR POSTOPERATIVE STRESS” (Japan Tobacco Inc., priority 2000, dated 2001)
Like-named read-outs stand apart in the source and are kept apart here.

Assays:
[1] = test system: adrenocorticotropic hormone (ACTH); test: Test 1: Effects on a rise in releasing of ACTH caused by surgical stress; format: in vivo, mouse; conditions: mice
Experimental: Test 1 Effects on a rise in releasing of stress hormone caused by surgical stress - effects on a rise in releasing of adrenocorticotropic hormone (ACTH)
Mice (ddY Slc male, 7 weeks of age) handled by being fastened up before the day of experiment were divided equally into groups according to their weights on the experimental day (the number of mouse in one group was 10). Mice were anesthetized by i.p. injection of 2.5mg/mouse pentobarbital Na (Nembutal(brand name), Dainihonseiyaku) and, 5 minutes later, the solvent(0.1N HCl/saline)alone or test medicine CP154,526HCl(0.3, 1 or 3 mg/kg)were intravenously injected into the tail veins of mice at a dose of 10ml/Kg weight of mouse. 10 minutes after injection, a midline incision was made in the abdomen and in about two minutes movable bowel was draped externally. Then 25 minutes after incision, 0.6ml of blood sample was collected from aorta abdominalis for 1 minute gradually by using prechilled syringes (needle size 25G) which were wetted with 100mM EDTA solution. Control mice not subjected to surgical stress were given medication by the injection of the solvent alone 5 minutes after anesthesia. […] Blood samples were centrifuged at 7,000 x g and 4°C for 20 minutes and the concentration of ACTH in supernatant was determined by IRMA method using Allegro ACTH kit (Nihon Medi+Physics Co., Ltd.). […]

corticosterone = test: Test 2: Effects on a rise in releasing of corticosterone caused by surgical stress; format: in vivo, mouse; conditions: mice
Experimental: Test 2 Effects on a rise in releasing of stress hormone caused by surgical stress - effects on a rise in releasing of corticosterone, adrenocortical hormone.
Mice (ddY Slc male, 7weeks of age) handled by being fastened up before the day of experiment were divided equally into groups according to their weights on the experimental day (the number of mouse in one group was 6 to 7). Mice were anesthetized by i.p. injections of 2.5mg/mouse pentobarbital Na(Nembutal(brand name)), Dainihonseiyaku) and, 20 minutes later, the solvent(0.1N HCl/saline) or test medicine CP154,526HCl(0.3, 1, 3 or 10 mg/kg) were intravenously injected into the tail veins of mice at a dose of 10ml/Kg weight of mouse. 5 Minutes after injection, a midline incision was made in the abdomen, and in about one to two minutes movable bowel was draped externally, and then, abdominal part was covered with wet absorbent cotton with saline to prevent from drying. In 30 minutes after incision, while the bowel was draped externally, mice were decapitated and blood samples were collected into siliconized tubes, prechilled on ice, which contained 20ul of 100mM EDTA. Blood samples were centrifuged at 7,000 x g and 4°C for 20 minutes and the supernatant was obtained. Negative control mice not subjected to surgical stress were decapitated and blood samples were collected in 35 minutes after injection of the solvent alone. […]

[2] = biological target: T1, CRF type I(CRF-I) receptor (Homo sapiens, UniProt P34998); test: in vitro Binding Assay using membrane fraction of recombinant cell (6EF2B) expressing CRF receptor gene (SPA method); conditions: 125I-Tyr0-human/rat CRF, membrane fraction of 6EF2B cells (derived from Hela cell)
T1 construct: expressed in transfected cells; membrane fraction
T1 sequence (P34998 24-415): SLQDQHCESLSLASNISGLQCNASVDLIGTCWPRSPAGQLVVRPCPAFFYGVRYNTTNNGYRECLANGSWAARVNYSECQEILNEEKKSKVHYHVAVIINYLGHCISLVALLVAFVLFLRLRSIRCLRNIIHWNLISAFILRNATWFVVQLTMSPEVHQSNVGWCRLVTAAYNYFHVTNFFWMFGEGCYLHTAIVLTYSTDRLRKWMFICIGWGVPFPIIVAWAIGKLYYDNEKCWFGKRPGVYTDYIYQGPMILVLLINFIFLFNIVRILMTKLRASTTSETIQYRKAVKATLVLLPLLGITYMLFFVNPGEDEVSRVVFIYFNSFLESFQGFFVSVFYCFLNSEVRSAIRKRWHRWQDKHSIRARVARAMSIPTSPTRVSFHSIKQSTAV
Experimental: Experiment 1 : in vitro Binding Assay using membrane fraction of recombinant cell (6EF2B) with expression of CRF receptor gene
Preparation of membrane fraction:
Recombinant cells 6EF2B (derived from Hela cell), which express CRF type I(CRF-I) receptor gene stably, were cultivated in Eagle's MEM medium(10%FCS, 400ug/ml G418.1/100 penicillin/streptomycin). After cultivation, cells were suspended in 50mM Tris-HCl (pH7.2) solution containing 1mM EDTA and incubated at 25°C for 15 to 30 minutes. After that, every step was carried out at 4°C. Treated cells were suspended in 50mM Tris-HCl(pH7.2) containing 10% sucrose and homogenized by a Polytron(PT10-35 model). This step of homogenization was carried out at 25,000 rpm for 15 to 20 seconds and repeated twice or three times. In the course of this step the homogenates were inspected under a microscope. Homogenates were centrifuged at 600 x g for 5 minutes and the supernatant was centrifuged again at 40,000 x g for 30 minutes. The obtained pellet was resuspended in 50mM Tris-HCl(10mM MgCl2, 2mM EGTA) and the suspension was centrifuged again at 40,000 x g for 30minutes. The obtained pellet was used for further experiments as membrane fraction. The membrane fraction was diluted with 50mM Tris-HCl(10mM MgCl2, 2mM EGTA, 0.1%BSA, 100 kallikrein units/ml aprotinin, 0.1mM bacitracin, pH7.2) to have the concentration of 1mg/ml and then stored at -80°C. DC protein assay kit (produced by Bio-RAD) was used to determine the protein concentration of the membrane fraction.
Binding Assay using CRF-I receptor by means of SPA method:
Compounds to be evaluated were stored at the concentration of 10mM in DMSO. […] The assay buffer consisted of 50mM Tris-HCl (pH7.7) containing 100mM NaCl, 5mM KCl, 2mM CaCl2, 0.1% BSA, 0.1% bacitracin, 0.05% FCS and 5% horse serum. The reactions were carried out in 96-well Optiplate(Packard) in which to 50ul of the test substance solution, were added 50ul of WGA-beads & membrane fraction (50 to 100ug membrane fraction/10mg beads/ml) pre-coupled by stirring (rotating with 10rpm) at room temperature for 2 hours on the day of experiment, and 100ul of 0.4nM ^125I-Tyr^0-human/rat CRF(NEX-216, Dupont NEN), to be made up 200ul as total volume, and the mixture was incubated at 25°C for 3 hours. By the way, the step of pre-coupling was carried out by using beads solution (20mg/ml) suspended in 50mM Tris-HCl buffer solution (pH7.2) and after stirring beads were washed twice with Tris-HCl buffer and once with assay buffer by centrifugation (3000 rpm, 5 minutes). In order to measure total binding and non-specific binding activity, assay buffer solution and 1uM(final conc.) cold human /rat CRF(C-3042; SIGMA) solution were used respectively in place of test substance solution. After incubation, the mixture was centrifuged at 23 °C, 2,500 rpm for 5 minutes and the scintillation was counted with Top Count (Packard). An influence of color quench was corrected by standard curve made by using tartrazine as a quencher. Evaluation of samples was carried out several times.

[3] = test system: adrenocorticotropic hormone(ACTH); test: Experiment 2: Model of surgical stress in mouse (inhibitory action of rise in releasing of ACTH); format: in vivo; conditions: ddY male mice, intravenous, surgical stress (abdominal incision, bowel draped externally)
Experimental: Experiment 2: Model of surgical stress in mouse (Inhibitory action of rise in releasing of adrenocorticotropic hormone(ACTH))
ddY male mice(SLC, 7 to 8 weeks of age: weight 34 to 42g)were used for experiments. Mice were housed before use under controlled lighting condition (12hours light and 12hours dark cycle(lights on from 8:00 to 20:00) at 23±3 °C and 55±15% humidity, and maintained with basal diet and water ad labium. On the experimental day, mice were moved to experimental room and habituated before experiment for more than 1 hour. On the day before experiment, mice were previously handled (by being fastened up for 10 to 15 seconds like the case of i.p. injections) to habituate to the stress caused by handling.
Medicine and administration:
Test compound to be evaluated was dissolved in and diluted with physiological saline(Otsuka), 5% mannitol or 0.1N NaHCO3/saline. Then the test sample solution was given into veins of mice at a dose of 10ml/Kg body weight. The same solvent alone mentioned above was given into veins of control mice group at a dose of 10ml/Kg weight.
Mice were anesthetized by injection of pentobarbital Na (2.5mg/mouse i.p.) and after 15 minutes the solvent alone or the solution containing test sample to be evaluated were intravenously injected on the tails of mice at a dose of 10ml/ Kg weight of mouse. After more 10 minutes a midline incision was made in the abdomen and in two minutes bowel was draped externally. Then 2.5 minutes after incision 0.6ml of blood samples were collected from main vein abdominalis for 1 minute gradually by using prechilled syringes(needle size 25G), which were wetted with 100mM EDTA solution. Control mice not subjected to surgical stress were decapitated and blood samples were collected at 13 to 14 minutes after medication of solvent alone and to them added 20ul of 100mM EDTA. Blood samples collected were put into siliconized tubes and centrifuged at 10,000rpm and 4°C for 5 minutes. The concentration of ACTH in supernatant was determined by IRMA method using Allegro ACTH kit (Nihon Medi+Physics Co.,Ltd.). […]

[4] = read-out: IC50(nM) [experiment 1]

`CCCCN(CC)c1nc(C)nc2c1c(C)cn2-c1c(C)cc(C)cc1C.Cl` [CP-154,526 HCl, N-butyl-N-[2,5-dimethyl-7-(2,4,6-trimethylphenyl)-7H -pyrrolo[2,3-d]pyrimidine-4-yl]-N-ethylamine chloride] was tested, and the “increase of ACTH concentration in plasma” value ([1]; i.v. 0.3, 1 or 3 mg/kg, surgical stress, dose-dependently (Fig. 1)) was “inhibited”, the “dose showing statistically significant inhibitory action on increase of ACTH concentration in plasma” value ([1]; i.v., surgical stress (Fig. 1)) was “not less than 1 mg/Kg” and the “increase of corticosterone concentration in plasma” value (corticosterone; i.v. 0.3, 1, 3 or 10 mg/kg, surgical stress, viscera exposed 30 minutes, dose-dependently (Fig. 2)) was “inhibited”. The “dose showing statistically significant inhibitory action on increase of corticosterone concentration in plasma” value (corticosterone; i.v., surgical stress (Fig. 2)) was “not less than 10 mg/Kg”.

`CCc1cc(S(=O)(=O)N(CC)CC)cc(NC(=O)c2cc(Cl)c(O)c(Cl)c2)c1OC` [Example 6, 3,5-dichloro-N-(3-ethyl-5-diethylsulfamoyl-2-methoxyphenyl)-4-hydroxybenzamide] was tested, and the IC50 [2, 4] was 218 nM.

For `CCc1cc(S(=O)(=O)N(CC)CC)cc(NC(=O)c2cc(Cl)c([O-])c(Cl)c2)c1OC.[Na+]` [Example 8, sodium 2,6-dichloro-4-(N-(3-ethyl-5-diethylsulfamoyl-2-methoxyphenyl)carbamoyl)phenoxide], the IC50 [2, 4] was 195 nM and the “Inhibitory action on ACTH release (mg/kg) [experiment 2]” value [3] was 10 to 30 mg/kg.

For `CCc1cc(S(=O)(=O)N(CC)CC)cc(NC(=O)c2cc(Cl)c(OP(=O)(O)O)c(Cl)c2)c1OC.O=P(O)(O)O` [Example 9, phosphate 2,6-dichloro-4-(N-(3-ethyl-5-diethylsulfamoyl-2-methoxyphenyl)carbamoyl)phenylphosphate], the IC50 ([2]; IC50(nM) [experiment 1]) was 278 nM and the “Inhibitory action on ACTH release (mg/kg) [experiment 2]” value [3] was 10 to 30 mg/kg.

With `CCN(CC)S(=O)(=O)c1cc(NC(=O)c2cc(Cl)c(O)c(Cl)c2)c(OC)c(OC)c1` [Example 10, 3,5-dichloro-N-(5-diethylsulfamoyl-2,3-dimethoxyphenyl)-4-hydroxybenzamide] the IC50 [2, 4] was 165 nM.

For `CCN(CC)S(=O)(=O)c1cc(NC(=O)c2cc(Cl)c(O)c([N+](=O)[O-])c2)c(OC)c(OC)c1` [Example 11, 3-chloro-N-(5-diethylsulfamoyl-2,3-dimethoxyphenyl)-4-hydroxy-5-nitrobenzamide], the IC50 [2, 4] was 123 nM.

Work on `CCN(CC)S(=O)(=O)c1cc(NC(=O)c2cc(Cl)c(O)c(Cl)c2)c(OC)c(N(C)C)c1` [Example 12, 3,5-dichloro-N-(5-diethylsulfamoyl-3-(dimethylamino)-2-methoxyphenyl)-4-hydroxybenzamide.] yielded an IC50 [2, 4] of 57 nM.
